Like-named read-outs stand apart in the source and are kept apart here.
Assays:
Mcl-1 protein = Mcl-1 protein (UniProtKB primary accession number: Q07820) (Homo sapiens, UniProt Q07820); test: Inhibition of Mcl-1 by fluorescence polarisation, Method 1; format: binding; conditions: read-out: IC50 (M) Mcl-1 FP
Procedure, shortened: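 FP competition, 11-point compound titration in 5% final DMSO; protein and labelled probe at 5 nM and 1 nM final in HEPES/NaCl/Tween 20 buffer, pH 7.4.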

[1] = system: H929 multiple myeloma tumour line; test: In vitro cytotoxicity, Microculture Tetrazolium Assay; format: cell-based; conditions: Homo sapiens, NCI-H929, 48 h, H929 cells, 48 hours exposure, MTT; read-out: IC50 (μM) MTT H929
Description: The cytotoxicity studies were carried out on the H929 multiple myeloma tumour line.
The cells are distributed onto microplates and exposed to the test compounds for 48 hours.

[2] = fluorescence polarisation, Method 1, or Method 2
[3] = fluorescence polarisation test, Method 2 values are underlined in the patent (underlining not visible here)

Mcl-1 protein, sequence (Q07820 whole entry): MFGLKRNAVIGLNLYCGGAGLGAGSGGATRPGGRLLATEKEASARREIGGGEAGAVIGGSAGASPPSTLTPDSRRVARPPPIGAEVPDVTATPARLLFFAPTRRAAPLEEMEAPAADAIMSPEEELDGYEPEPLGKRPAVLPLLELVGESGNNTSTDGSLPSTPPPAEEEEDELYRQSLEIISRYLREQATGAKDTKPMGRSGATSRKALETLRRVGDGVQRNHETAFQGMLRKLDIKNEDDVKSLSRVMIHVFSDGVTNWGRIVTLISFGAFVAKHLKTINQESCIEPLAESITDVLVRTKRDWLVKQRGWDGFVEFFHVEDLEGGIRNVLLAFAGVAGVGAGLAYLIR

Compound | IC50 (Mcl-1 protein; [2]) [M] | IC50 [1] [µM] | IC50 (Mcl-1 protein; [3]) [M]
Cc1c(-c2c(-c3ccsc3)sc3ncnc(OC(Cc4ccccc4)C(=O)O)c23)ccc(OCCN2CCN(C)CC2)c1Cl [Example 510, (2R)-2-{[(5Sa)-5-{3-chloro-2-methyl-4-[2-(4-methylpiperazin-1-yl)ethoxy]phenyl}-6-(thiophen-3-yl)thieno[2,3-d]pyrimidin-4-yl]oxy}-3-phenylpropanoic acid] | 3.9e-08 | 0.639 | 
Cc1c(-c2c(-c3ccco3)sc3ncnc(OC(Cc4ccccc4OCc4ccnc(OCc5ccccc5)n4)C(=O)O)c23)ccc(OCCN2CCN(C)CC2)c1Cl [Example 257, (2R)-3-(2-{[2-(benzyloxy)pyrimidin-4-yl]methoxy}phenyl)-2-{[(5Sa)-5-{3-chloro-2-methyl-4-[2-(4-methylpiperazin-1-yl)ethoxy]phenyl}-6-(furan-2-yl)thieno[2,3-d]pyrimidin-4-yl]oxy}propanoic acid] |  | 0.019 | 5e-09
COc1ccccc1-c1nccc(COc2ccccc2CC(Oc2ncnc3sc(-c4ccc(OCc5ccccn5)cc4)c(-c4ccc(OCCN5CCN(C)CC5)c(Cl)c4C)c23)C(=O)O)n1 [Example 769, (2R)-2-[((5Sa)-5-{3-chloro-2-methyl-4-[2-(4-methylpiperazin-1-yl)ethoxy]phenyl}-6-[4-(pyridin-2-ylmethoxy)phenyl]thieno[2,3-d]pyrimidin-4-yl)oxy]-3-(2-{[2-(2-methoxyphenyl)pyrimidin-4-yl]methoxy}phenyl)propanoic acid] | 9.48e-10 | 0.01 | 
COc1nccc(COc2ccccc2CC(Oc2ncnc3sc(-c4ccc(F)c(OCCO)c4)c(-c4ccc(OCCN5CCN(C)CC5)c(Cl)c4C)c23)C(=O)O)n1 [Example 597, (2R)-2-[((5Sa)-5-{3-chloro-2-methyl-4-[2-(4-methylpiperazin-1-yl)ethoxy]phenyl}-6-[4-fluoro-3-(2-hydroxyethoxy)phenyl]thieno[2,3-d]pyrimidin-4-yl)oxy]-3-{2-[(2-methoxypyrimidin-4-yl)methoxy]phenyl}propanoic acid] | 6.2e-09 | 0.449 | 
COc1nccc(COc2ccccc2CC(Oc2ncnc3sc(-c4ccc(F)c(F)c4)c(-c4ccc(OCCN5CCN(C)CC5)c(Cl)c4C)c23)C(=O)O)n1 [Example 706, (2R)-2-{[(5Sa)-5-{3-chloro-2-methyl-4-[2-(4-methylpiperazin-1-yl)ethoxy]phenyl}-6-(3,4-difluorophenyl)thieno[2,3-d]pyrimidin-4-yl]oxy}-3-{2-[(2-methoxypyrimidin-4-yl)methoxy]phenyl}propanoic acid] | 3.6e-09 | 0.04 | 
COCCOc1ccc(-c2sc3ncnc(OC(Cc4ccccc4OCc4ccnn4CC(F)(F)F)C(=O)O)c3c2-c2ccc(OCCN3CCN(C)CC3)c(Cl)c2C)cn1 [Example 694, (2R)-2-[((5Sa)-5-{3-chloro-2-methyl-4-[2-(4-methylpiperazin-1-yl)ethoxy]phenyl}-6-[6-(2-methoxyethoxy)pyridin-3-yl]thieno[2,3-d]pyrimidin-4-yl)oxy]-3-(2-{[1-(2,2,2-trifluoroethyl)-1H-pyrazol-5-yl]methoxy}phenyl)propanoic acid] | 6.4e-09 | 0.183 | 
CCn1nccc1COc1ccccc1CC(Oc1ncnc2sc(-c3ccc(F)c(OC)c3)c(-c3ccc(OCCN4CCN(C)CC4)c(Cl)c3C)c12)C(=O)O [Example 384, (2R)-2-{[(5Sa)-5-{3-chloro-2-methyl-4-[2-(4-methylpiperazin-1-yl)ethoxy]phenyl}-6-(4-fluoro-3-methoxyphenyl)thieno[2,3-d]pyrimidin-4-yl]oxy}-3-{2-[(1-ethyl-1H-pyrazol-5-yl)methoxy]phenyl}propanoic acid] |  | 0.053 | 3.8e-09
CCCCc1nccc(COc2ccccc2CC(Oc2ncnc3sc(-c4ccc(F)cc4)c(-c4ccc(OCCN5CCN(C)CC5)c(Cl)c4C)c23)C(=O)O)n1 [Example 42, (2R)-3-{2-[(2-butylpyrimidin-4-yl)methoxy]phenyl}-2-{[(5Sa)-5-{3-chloro-2-methyl-4-[2-(4-methylpiperazin-1-yl)ethoxy]phenyl}-6-(4-fluorophenyl)thieno[2,3-d]pyrimidin-4-yl]oxy}propanoic acid] |  | 0.012 | 3.2e-09
COc1ccccc1-c1nccc(COc2ccccc2CC(Oc2ncnc3sc(-c4ccc(OCc5cccs5)cc4)c(-c4ccc(OCCN5CCN(C)CC5)c(Cl)c4C)c23)C(=O)O)n1 [Example 777, (2R)-2-[((5Sa)-5-{3-chloro-2-methyl-4-[2-(4-methylpiperazin-1-yl)ethoxy]phenyl}-6-[4-(thiophen-2-ylmethoxy)phenyl]thieno[2,3-d]pyrimidin-4-yl)oxy]-3-(2-{[2-(2-methoxyphenyl)pyrimidin-4-yl]methoxy}phenyl)propanoic acid] | 1.12e-09 | 0.008 | 
Cc1c(-c2c(-c3ccc(F)cc3)sc3ncnc(OC(Cc4ccccc4OCc4cocn4)C(=O)O)c23)ccc(OCCN2CCN(C)CC2)c1Cl [Example 98, (2R)-2-{[(5Sa)-5-{3-chloro-2-methyl-4-[2-(4-methylpiperazin-1-yl)ethoxy]phenyl}-6-(4-fluorophenyl)thieno[2,3-d]pyrimidin-4-yl]oxy}-3-[2-(1,3-oxazol-4-ylmethoxy)phenyl]propanoic acid] |  | 0.118 | 3.3e-07
Cc1c(-c2c(-c3ccco3)sc3ncnc(OC(Cc4ccccc4OCc4cc(Cl)ccn4)C(=O)O)c23)ccc(OCCN2CCN(C)CC2)c1Cl [Example 222, (2R)-2-{[(5Sa)-5-{3-chloro-2-methyl-4-[2-(4-methylpiperazin-1-yl)ethoxy]phenyl}-6-(furan-2-yl)thieno[2,3-d]pyrimidin-4-yl]oxy}-3-{2-[(4-chloropyridin-2-yl)methoxy]phenyl}propanoic acid] |  | 0.314 | 7.4e-09
COc1ccccc1CC(Oc1ncnc2sc(-c3ccc(C4CC4)o3)c(-c3ccc(OCCN4CCN(C)CC4)c(Cl)c3C)c12)C(=O)O [Example 585, (2R)-2-{[(5Sa)-5-{3-chloro-2-methyl-4-[2-(4-methylpiperazin-1-yl)ethoxy]phenyl}-6-(5-cyclopropylfuran-2-yl)thieno[2,3-d]pyrimidin-4-yl]oxy}-3-(2-methoxyphenyl)propanoic acid] | 8.5e-08 | 2.92 | 
Cc1cncc(-c2nccc(COc3ccccc3CC(Oc3ncnc4sc(-c5ccc(F)cc5)c(-c5ccc(OCCN6CCN(C)CC6)c(Cl)c5C)c34)C(=O)O)n2)c1 [Example 122, (2R)-2-{[(5Sa)-5-{3-chloro-2-methyl-4-[2-(4-methylpiperazin-1-yl)ethoxy]phenyl}-6-(4-fluorophenyl)thieno[2,3-d]pyrimidin-4-yl]oxy}-3-(2-{[2-(5-methylpyridin-3-yl)pyrimidin-4-yl]methoxy}phenyl)propanoic acid] |  | 0.01 | 3.8e-09
COc1ccccc1CC(Oc1ncnc2sc(-c3ccc(F)cc3F)c(-c3ccc(OCCN4CCN(C)CC4)c(Cl)c3C)c12)C(=O)O [Example 540, (2R)-2-{[(5Sa)-5-{3-chloro-2-methyl-4-[2-(4-methylpiperazin-1-yl)ethoxy]phenyl}-6-(2,4-difluorophenyl)thieno[2,3-d]pyrimidin-4-yl]oxy}-3-(2-methoxyphenyl)propanoic acid] | 3.2e-09 | 0.311 | 
